Measurements from patent US6472418B1, “Non-peptide NK1 receptors antagonists” (Warner-Lambert Company, priority 1998, dated 2002).

Biological target: T1, Human NK1 Receptor (Homo sapiens, UniProt P25103)
T1 construct: endogenous in cells; host or cells: Human lymphoma IM9 cells (whole cells)
Assay: In Vitro Human NK1 Receptor Binding Assay ([125I]Bolton-Hunter substance P displacement, IM9 cells)
Conditions: Human lymphoma IM9 cells, [125I]Bolton-Hunter substance P; Table 3, array-synthesis products; read-out: IC50 (nM) hNK1
Method in brief: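 Radioligand displacement on whole IM9 human lymphoma cells (2.5×10^6 cells/mL) using [125I]Bolton-Hunter substance P (0.05-0.1 nM), 50 min at 21° C in Tris pH 7.4/MnCl2 buffer with protease inhibitors. Non-specific binding defined by […] [Sar9, Met(O2)11] substance P. Filtration, gamma counting, iterative curve fitting.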

T1 sequence (P25103 whole entry): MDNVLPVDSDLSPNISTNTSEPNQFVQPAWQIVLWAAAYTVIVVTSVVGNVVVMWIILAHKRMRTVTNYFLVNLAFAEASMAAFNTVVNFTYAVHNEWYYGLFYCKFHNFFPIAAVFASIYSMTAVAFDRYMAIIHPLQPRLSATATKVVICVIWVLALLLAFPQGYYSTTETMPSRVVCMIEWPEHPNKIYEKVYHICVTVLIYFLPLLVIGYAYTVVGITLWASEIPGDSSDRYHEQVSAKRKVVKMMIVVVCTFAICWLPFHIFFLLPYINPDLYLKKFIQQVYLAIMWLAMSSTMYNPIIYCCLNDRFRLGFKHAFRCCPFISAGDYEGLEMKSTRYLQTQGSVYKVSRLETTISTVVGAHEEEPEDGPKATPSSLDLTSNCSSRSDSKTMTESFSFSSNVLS

Q: Which IC50 does the source give for `O=C(NCC1CC2CCC1C2)C(Cc1c[nH]c2ccccc12)NCc1cc2ccccc2o1` (centres unmarked) [Example 266, 2-[(Benzofuran-2-ylmethyl)-amino]-N-bicyclo[2.2.1]-hept-2-ylmethyl-3-(1H-indol-3-yl)-propionamide] here?
A: 633 nM

Q: Which IC50 does the source give for `O=C(NCCc1c[nH]c2ccccc12)C(Cc1c[nH]c2ccccc12)NCc1cc2ccccc2o1` (centres unmarked) [Example 280, 2-[(Benzofuran-2-ylmethyl)-amino]-3-(1H-indol-3-yl)-N-[2-(1H-indol-3-yl)-ethyl]-propionamide] here?
A: 2540 nM

Q: With `CC(NC(=O)C(Cc1c[nH]c2ccccc12)NCc1cc2ccccc2o1)c1ccc(F)cc1` (centres unmarked) [Example 235, 2-[(Benzofuran-2-ylmethyl)-amino]-N-[1-(4-fluoro-phenyl)-ethyl]-3-(1H-indol-3-yl)-propionamide] as the compound, how does the IC50 read?
A: 3 nM

Q: For `O=C(NCCOc1ccccc1)C(Cc1c[nH]c2ccccc12)NCc1cc2ccccc2o1` (centres unmarked) [Example 305, 2-[(Benzofuran-2-ylmethyl)-amino]-3-(1H-indol-3-yl)-N-(2-phenoxy-ethyl)-propionamide], which IC50 is on record?
A: 400 nM

Same assay, conditions: Table 4; [125I]Bolton-Hunter substance P displacement, human IM9 cells; read-out: IC50 (nM) hNK1

Q: `CC(NC(=O)C(C)(Cc1c[nH]c2ccccc12)NCc1cncc2ccccc12)c1ccccc1` (centres unmarked) [compound 318, 3-(1H-Indol-3-yl)-2-[(isoquinolin-4-ylmethyl)-amino]-2-methyl-N-(1-phenyl-ethyl)-propionamide] was tested. Which IC50 did it give?
A: 1600 nM

Q: `CC(NC(=O)C(C)(Cc1c[nH]c2ccccc12)NCc1c2ccccc2cc2ccccc12)c1ccccc1` (centres unmarked) [compound 346, 2-[(Anthracen-9-ylmethyl)-amino]-3-(1H-indol-3-yl)-2-methyl-N-(1-phenyl-ethyl)-propionamide] was tested. Which IC50 did it give?
A: > 10000 nM

Q: `CSc1ccc(CNC(C)(Cc2c[nH]c3ccccc23)C(=O)NC(C)c2ccccc2)cc1` (centres unmarked) [compound 345, 3-(1H-Indol-3-yl)-2-methyl-2-(4-methylsulfanyl-benzylamino)-N-(1-phenyl-ethyl)-propionamide] was tested. Which IC50 did it give?
A: 609 nM

Q: How did the IC50 turn out when `CC(NC(=O)C(C)(Cc1c[nH]c2ccccc12)NCc1ccc(OCCN(C)C)cc1)c1ccccc1` (centres unmarked) [compound 331, 2-[4-(2-Dimethylamino-ethoxy)-benzylamino]-3-(1H-indol-3-yl)-2-methyl-N-(1-phenyl-ethyl)-propionamide] was run?
A: > 10000 nM

Same assay, conditions: Table 5; [125I]Bolton-Hunter substance P displacement, human IM9 cells; read-out: IC50 (nM) hNK1

Q: With `CC(NC(=O)C(Cc1c[nH]c2ccccc12)NCc1cccc(F)c1)c1ccccc1` (centres unmarked) [compound 401] as the compound, how does the IC50 read?
A: 39 nM

Q: Which IC50 does the source give for `CC(NC(=O)C(Cc1c[nH]c2ccccc12)NCC1CSc2c([nH]c3ccccc23)C1=O)c1ccccc1` (centres unmarked) [compound 372] here?
A: > 10000 nM

Q: With `CC=C(C)CCC=C(C)CNC(Cc1c[nH]c2ccccc12)C(=O)NC(C)c1ccccc1` (centres unmarked) [compound 389] as the compound, how does the IC50 read?
A: 2570 nM

Q: How did the IC50 turn out when `CCOC(=O)Nc1ccccc1CNC(Cc1c[nH]c2ccccc12)C(=O)NC(C)c1ccccc1` (centres unmarked) [compound 367] was run?
A: 236 nM

Q: With `CC(NC(=O)C(Cc1c[nH]c2ccccc12)NCc1ccoc1)c1ccccc1` (centres unmarked) [compound 402] as the compound, how does the IC50 read?
A: 881 nM

Same assay, conditions: human NK1 receptor, IM9 cells, [125I]Bolton-Hunter substance P; read-out: IC50 (nM) hNK1

Q: For `CC(NC(=O)C(C)(Cc1c[nH]c2ccccc12)NCc1cc2ccccc2o1)c1ccc([N+](=O)[O-])cc1` (centres unmarked) [compound 124, 2-[(Benzofuran-2-ylmethyl)-amino]-3-(1H-indol-3-yl)-2-methyl-N-[1-(4-nitro-phenyl)-ethyl]-propionamide], which IC50 is on record?
A: 92 nM

Q: With `CC(Cc1c[nH]c2ccccc12)(NCc1cc2ccccc2o1)C(=O)NCCc1ccc(O)cc1` (centres unmarked) [compound 143, 2-[(Benzofuran-2-ylmethyl)-amino]-N-[2-(4-hydroxy-phenyl)-ethyl]-3-(1H-indol-3-yl)-2-methyl-propionamide] as the compound, how does the IC50 read?
A: > 10000 nM

Q: `CC(Cc1c[nH]c2ccccc12)(NCc1cc2ccccc2o1)C(=O)NCCN1CCCCC1` (centres unmarked) [compound 125, 2-[(Benzofuran-2-ylmethyl)-amino]-3-(1H-indol-3-yl)-2-methyl-N-(2-piperidin-1-yl-ethyl)-propionamide] was tested. Which IC50 did it give?
A: > 10000 nM

Q: For `CC(Cc1c[nH]c2ccccc12)(NCc1cc2ccccc2o1)C(=O)NCC1CCNC1` (centres unmarked) [compound 154, 2-[(Benzofuran-2-ylmethyl)-amino]-3-(1H-indol-3-yl)-2-methyl-N-pyrrolidin-3-ylmethyl-propionamide], which IC50 is on record?
A: > 10000 nM
